Earlier results in patent US5639785A, “Methods for the treatment of baldness and gray hair using isoflavonoid derivatives” (priority 1995, dated 1997).
Like-named read-outs stand apart in the source and are kept apart here.

Columns and labels:
[1] = test system: patients with hair loss; conditions: after four months of treatment
[2] = test system: LNCaP human prostate cancer cell line
[3] = test system: Du-145 human prostate cancer cell line
[4] = test system: alcohol dehydrogenase (ADH) class I isozymes
[5] = molecular target: T1, aldehyde dehydrogenase (ALDH) II and II of human mitochondria (Homo sapiens, UniProt P05091)
T1 sequence (P05091 18-517): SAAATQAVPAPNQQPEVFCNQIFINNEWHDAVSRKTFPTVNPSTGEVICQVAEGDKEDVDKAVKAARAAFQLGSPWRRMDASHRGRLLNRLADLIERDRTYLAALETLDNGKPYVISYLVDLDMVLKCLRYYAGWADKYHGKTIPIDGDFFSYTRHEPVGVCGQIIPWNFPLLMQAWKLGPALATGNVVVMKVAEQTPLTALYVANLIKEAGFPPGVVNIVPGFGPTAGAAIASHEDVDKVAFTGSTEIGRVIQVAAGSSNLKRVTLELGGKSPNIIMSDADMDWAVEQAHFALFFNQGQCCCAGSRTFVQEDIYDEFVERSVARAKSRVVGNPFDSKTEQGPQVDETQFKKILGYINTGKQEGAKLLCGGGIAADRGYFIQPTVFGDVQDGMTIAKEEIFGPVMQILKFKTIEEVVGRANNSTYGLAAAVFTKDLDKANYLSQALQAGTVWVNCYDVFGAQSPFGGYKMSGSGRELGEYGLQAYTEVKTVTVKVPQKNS

[6] = test system: Syrian Golden hamsters
[7] = molecular target: r1 r1 ADH isozyme (alcohol dehydrogenase class I) (Homo sapiens, UniProt P00326); conditions: competitive with respect to ethanol, uncompetitive with respect to NAD
[8] = molecular target: r2 r2 ADH isozyme (alcohol dehydrogenase class I) (Homo sapiens, UniProt P00326, I350V/R272Q); conditions: competitive with respect to ethanol, uncompetitive with respect to NAD
[9] = test system: HL60 human leukemia cells

Sequence of r1 r1 ADH isozyme (alcohol dehydrogenase class I) (P00326 2-375 limits assumed): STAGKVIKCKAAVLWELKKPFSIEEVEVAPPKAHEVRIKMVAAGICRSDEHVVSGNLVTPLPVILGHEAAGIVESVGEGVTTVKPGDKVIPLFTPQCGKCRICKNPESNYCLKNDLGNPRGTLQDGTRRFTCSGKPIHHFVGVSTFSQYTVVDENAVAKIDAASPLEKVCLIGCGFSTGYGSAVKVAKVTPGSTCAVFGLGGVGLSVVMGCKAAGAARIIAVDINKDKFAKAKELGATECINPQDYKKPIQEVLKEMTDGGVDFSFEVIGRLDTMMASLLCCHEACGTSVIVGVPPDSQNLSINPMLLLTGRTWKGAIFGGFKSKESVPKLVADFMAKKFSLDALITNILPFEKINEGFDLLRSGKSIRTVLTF
Sequence of r2 r2 ADH isozyme (alcohol dehydrogenase class I) (P00326 2-375 R272Q/I350V limits assumed): as the sequence (P00326 2-375 limits assumed) above, with R271Q, I349V counted along it

SMILES | inhibition of serum and epidermal growth factor-stimulated growth [2] | inhibition of serum and epidermal growth factor-stimulated growth [3] | inhibition of ADH [4] | free choice ethanol intake ([6]; Syrian Golden hamsters) | other results
Nc1cc(N2CCCCC2)nc(N)[n+]1[O-] [Minoxidil] | – | – | – | – | patients who achieve minimal regrowth of hair [1]: approximately 25%
COc1ccc(-c2coc3cc(O)cc(O)c3c2=O)cc1 [biochanin A] | inhibited | inhibited | – | – | –
O=c1c(-c2ccc(O)cc2)coc2cc(O[C@@H]3O[C@H](CO)[C@@H](O)[C@H](O)[C@H]3O)ccc12 [daidzin] | – | – | did not inhibit | suppressed | inhibition of ALDH [5]: potent inhibitor; effect on body weight, water or food intake ([6]; Syrian Golden hamsters): did not significantly affect
O=c1c(-c2ccc(O)cc2)coc2cc(O)cc(O)c12 [genistein] | inhibited | inhibited | reversible inhibitors | – | –
O=c1c(-c2ccc(O)cc2)coc2cc(O)ccc12 [daidzein, 7-hydroxy-3-(4-hydroxyphenyl)-4-H-1-benzopyranyl-4-one] | not | not | reversible inhibitors | suppressed | Ki [7]: ~1000 nM; Ki [8]: ~1000 nM; concentration that inhibited the growth of HL60 cells [9]: greater than 10 μg/ml; effect on body weight, water or food intake ([6]; hamster, in vivo): did not significantly affect
